Results reported in paper PMC10218254 (International Journal of Molecular Sciences, 2023).
Like-named read-outs stand apart in the source and are kept apart here.

How the values were obtained:
SARS-CoV-2 PL^pro [1] = target: T1, SARS-CoV-2 PL^pro (Severe acute respiratory syndrome coronavirus 2, UniProt P0DTD1); conditions: cited from earlier work
SARS-CoV-2 PL^pro [2] = target: T1, SARS-CoV-2 PL^pro; assay: biochemical; conditions: Ub-AMC substrate, 60 min incubation
SARS-CoV PL^pro = SARS-CoV PL^pro (Severe acute respiratory syndrome coronavirus, UniProt P0C6X7); assay: biochemical
SARS-CoV-2 PL^pro [3] = target: T1, SARS-CoV-2 PL^pro; format: binding; conditions: 40 μM protease, 200 μM compound; for Tm of SARS-CoV-2 PLpro incubated with compound: apo protease 43.3 °C
SARS-CoV-2 PL^pro [4] = target: T1, SARS-CoV-2 PL^pro; assay: biochemical; conditions: for IC50: 60 min incubation
SARS-CoV-2 PL^pro [5] = target: T1, SARS-CoV-2 PL^pro; assay: biochemical; conditions: 50 nM protease; for Ki: read-out: Ki (binding affinity of initial reversible binding); for kinact: read-out: kinact (rate constant of covalent bond formation) (converted)
MERS-CoV PL^pro = MERS-CoV PL^pro (Middle East respiratory syndrome-related coronavirus, UniProt K9N7C7); assay: biochemical
Sequence of MERS-CoV PL^pro (K9N7C7 1552-1823 limits assumed): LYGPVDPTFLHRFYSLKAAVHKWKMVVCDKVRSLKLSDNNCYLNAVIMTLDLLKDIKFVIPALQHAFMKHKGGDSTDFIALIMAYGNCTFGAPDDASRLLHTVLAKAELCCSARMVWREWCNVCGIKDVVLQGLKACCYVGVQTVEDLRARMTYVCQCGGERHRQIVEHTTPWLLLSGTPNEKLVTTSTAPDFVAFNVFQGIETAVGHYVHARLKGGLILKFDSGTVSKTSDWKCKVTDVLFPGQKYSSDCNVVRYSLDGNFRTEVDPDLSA

SARS-CoV-2 PL^pro [6] = target: T1, SARS-CoV-2 PL^pro; assay: cell-based; conditions: HEK293T cells; for EC50: 48 h
[7] = Cytotoxicity, cell counting kit-8 (CCK8) assay; conditions: human, CC50, HEK293T cells
HEK293T cells = assay: Cytotoxicity, cell counting kit-8 (CCK8) assay; conditions: HEK293T cells, 24 h

Molecule	IC50 (SARS-CoV-2 PL^pro [2]) [µM]	Tm of SARS-CoV-2 PLpro incubated with compound (SARS-CoV-2 PL^pro [3]) [°C]	IC50 (SARS-CoV-2 PL^pro [4]; RLRGG-AMC substrate) [µM]	kinact/KI (SARS-CoV-2 PL^pro [5]) [M⁻¹ s⁻¹]	Ki (SARS-CoV-2 PL^pro [5]) [µM]	kinact (SARS-CoV-2 PL^pro [5]) [s⁻¹]	EC50 (SARS-CoV-2 PL^pro [6]) [µM]	CC50 at 24 h [7] [µM]	CC50 (HEK293T cells) [µM]	further results
COC(=O)/C=C/CNC(=O)CNC(=O)[C@H](CN)NC(=O)[C@H](CCc1nc2ccccc2s1)NC(C)=O [VIR250]	–	–	–	–	–	–	–	–	–	IC50 (SARS-CoV-2 PL^pro [1]; read-out: IC50): ~50 µM
COC(=O)/C=C/CNC(=O)CNC(=O)[C@H](CN)NC(=O)[C@H](CCc1ccc(O)cc1)NC(C)=O [VIR251]	–	–	–	–	–	–	–	–	–	IC50 (SARS-CoV-2 PL^pro [1]): ~50 µM
COC(=O)/C=C/CNC(=O)CNC(=O)CNC(=O)C1CCN(C(C)c2cccc3ccccc23)CC1 (stereo not drawn) [compound 2, Methyl (E)-4-(2-(2-(1-(1-(Naphthalen-1-yl)ethyl)piperidine-4-carboxamido)acetamido)acetamido)but-2-enoate]	0.46	68.0	0.46	160	5.32	0.00085	3.61	~180	~180	IC50 (SARS-CoV PL^pro): 0.39 µM; change in inhibitory activities in the presence and absence of DTT (SARS-CoV-2 PL^pro [4]; 4 mM DTT, varied concentrations): no apparent change; improvement in potency (IC50) compared to VIR251 (SARS-CoV-2 PL^pro [4]; RLRGG-AMC substrate): about 100 fold; improvement in potency (IC50) compared to compound 1 (SARS-CoV-2 PL^pro [4]; RLRGG-AMC substrate): ~5 fold; increase in potency (IC50) compared to positive control GRL0617 (SARS-CoV-2 PL^pro [4]; RLRGG-AMC substrate): 2 fold; IC50 (MERS-CoV PL^pro): > 100 µM; inhibitory activity towards MERS-CoV PLpro (MERS-CoV PL^pro): basically ineffective; improvement in EC50 compared to GRL0617 (SARS-CoV-2 PL^pro [6]): ~ 4.4 fold
COC(=O)/C=C/C(=O)NNC(=O)CCc1ccccc1C(=O)NC(C)c1cccc2ccccc12 (stereo not drawn) [compound 3, reference compound]	–	–	–	–	–	–	–	58.3 ± 22.1	58.3	–
COC(=O)/C=C/C(=O)NNC(=O)CNC(=O)CNC(=O)C1CCN(C(C)c2cccc3ccccc23)CC1 (stereo not drawn) [compound 4, Methyl (E)-4-(2-((1-(1-(Naphthalen-1-yl)ethyl)piperidine-4-carbonyl)glycylglycyl)hydrazinyl)-4-oxobut-2-enoate]	0.32	–	0.23	265	4.65	0.00123	> 200	> 200	–	Tm increase compared to apo protease (SARS-CoV-2 PL^pro [3]): 15.1 °C; inhibitory potency higher than compound 2 (SARS-CoV-2 PL^pro [4]; enzymatic inhibition assay): ~ 1 fold; inhibitory effect in cell-based protease assay (SARS-CoV-2 PL^pro [6]): hardly has an inhibitory effect
GRL0617 [reference compound]	–	50.4	–	–	–	–	–	–	> 200	–
